Laboratory results published in ChEMBL document CHEMBL1201862, “PubChem BioAssay data set” (2004).
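These data come from cells grown in 96-well plates and exposed to compound for 48 hours at five concentrations. At the GI50, growth is halved.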 The source made the active and inactive calls. Cut-off read from the data, not from the text of the source: active = GI50 up to about 1.1 µM and inactive = higher.

Tests used:
Test in all cases: inhibition of tumour cell growth, NCI panel, 48 h
OVCAR-4 = test system: OVCAR-4
HCT-116 = test system: HCT-116
K562 = test system: K562
ACHN = test system: ACHN
LOX IMVI = test system: LOX IMVI
SF-539 = test system: SF-539
SK-MEL-2 = test system: SK-MEL-2
M14 = test system: M14
HT-29 = test system: HT-29
HL-60 = test system: HL-60
SNB-75 = test system: SNB-75
HCC 2998 = test system: HCC 2998
OVCAR-5 = test system: OVCAR-5
UACC-257 = test system: UACC-257
HOP-62 = test system: HOP-62
Hs-578T = test system: Hs-578T
NCI/ADR-RES = test system: NCI/ADR-RES
OVCAR-3 = test system: OVCAR-3
U-251 = test system: U-251
SK-OV-3 = test system: SK-OV-3

In the case of `CC[C@@H](C)[C@H]([C@H](CC(=O)N1CCC[C@@H]1[C@@H](OC)[C@H](C)C(=O)N[C@H](Cc1ccccc1)c1nccs1)OC)N(C)C(=O)[C@H](NC(=O)[C@@H](C(C)C)N(C)C)C(C)C`, the GI50 (OVCAR-4) is reported as 0.000745 µM (active), the GI50 (HCT-116) is reported as 0.000125 µM (active) and the GI50 (K562) is reported as 6.93e-05 µM (active). The GI50 (ACHN) was 0.000439 µM (active), the GI50 (LOX IMVI) was 0.000161 µM (active) and the GI50 (SF-539) was 0.000168 µM (active). The GI50 (SK-MEL-2) was 0.000125 µM (active), the GI50 (M14) was 0.000165 µM (active) and the GI50 (HT-29) was 2.24e-05 µM (active). The GI50 (HL-60) was 3.51e-05 µM (active), the GI50 (SNB-75) was 0.000161 µM (active) and the GI50 (HCC 2998) was 0.00029 µM (active). The GI50 (OVCAR-5) was 0.0005 µM (active), the GI50 (UACC-257) was 0.000262 µM (active) and the GI50 (HOP-62) was 0.000193 µM (active). The GI50 (Hs-578T) was < 0.01 µM (active), the GI50 (NCI/ADR-RES) was < 0.01 µM (active) and the GI50 (OVCAR-3) was 3.11e-05 µM (active). The GI50 (U-251) was 0.000249 µM (active).
For `S=C1SSC2N=CC=CC12` (configuration not stated), the GI50 (OVCAR-4) was 16.2 µM (inactive), the GI50 (HCT-116) was 92.9 µM (inactive) and the GI50 (K562) was 49.1 µM (inactive). The GI50 (ACHN) was > 100 µM (inactive), the GI50 (SK-OV-3) was > 100 µM (inactive) and the GI50 (LOX IMVI) was 31.3 µM (inactive). The GI50 (SF-539) was > 100 µM (inactive), the GI50 (SK-MEL-2) was > 100 µM (inactive) and the GI50 (M14) was 85.5 µM (inactive). For the same molecule, the GI50 (HT-29) was > 100 µM (inactive), the GI50 (HL-60) was 40.5 µM (inactive) and the GI50 (SNB-75) was > 100 µM (inactive). For the same molecule, the GI50 (HCC 2998) was 24.7 µM (inactive), the GI50 (OVCAR-5) was > 100 µM (inactive) and the GI50 (UACC-257) was > 100 µM (inactive). For the same molecule, the GI50 (Hs-578T) was > 100 µM (inactive), the GI50 (NCI/ADR-RES) was > 100 µM (inactive) and the GI50 (OVCAR-3) was > 100 µM (inactive). The GI50 (U-251) was > 100 µM (inactive).
In the case of `O=C1NN=C(O)C2C3c4ccccc4C(c4ccccc43)C12` (configuration not stated), the GI50 (OVCAR-4) is reported as > 100 µM (inactive), the GI50 (HCT-116) is reported as > 100 µM (inactive) and the GI50 (K562) is reported as > 100 µM (inactive). For the same molecule, the GI50 (ACHN) was > 100 µM (inactive), the GI50 (SK-OV-3) was > 100 µM (inactive) and the GI50 (LOX IMVI) was > 100 µM (inactive). The GI50 (SF-539) was > 100 µM (inactive), the GI50 (M14) was > 100 µM (inactive) and the GI50 (HT-29) was > 100 µM (inactive). For the same molecule, the GI50 (HL-60) was > 100 µM (inactive), the GI50 (SNB-75) was > 100 µM (inactive) and the GI50 (HCC 2998) was > 100 µM (inactive). The GI50 (OVCAR-5) was > 100 µM (inactive), the GI50 (UACC-257) was > 100 µM (inactive) and the GI50 (HOP-62) was > 100 µM (inactive). For the same molecule, the GI50 (Hs-578T) was > 100 µM (inactive), the GI50 (NCI/ADR-RES) was > 100 µM (inactive) and the GI50 (OVCAR-3) was > 100 µM (inactive). For the same molecule, the GI50 (U-251) was > 100 µM (inactive).
For `O=C1c2ccc3cc(CCl)cc(O)c3c2C(=O)c2cccc(O)c21`, the GI50 (OVCAR-4) was 2.67 µM (inactive), the GI50 (HCT-116) was 1.1 µM (active) and the GI50 (K562) was 3.44 µM (inactive). The GI50 (ACHN) was 2.91 µM (inactive), the GI50 (SK-OV-3) was > 10 µM (inactive) and the GI50 (LOX IMVI) was 2.96 µM (inactive). The GI50 (SF-539) was 2.39 µM (inactive), the GI50 (SK-MEL-2) was 1.64 µM (inactive) and the GI50 (M14) was 0.239 µM (active). The GI50 (HL-60) was 0.284 µM (active), the GI50 (HCC 2998) was 3.17 µM (inactive) and the GI50 (OVCAR-5) was > 10 µM (inactive). The GI50 (UACC-257) was 1.17 µM (inactive), the GI50 (HOP-62) was 3.38 µM (inactive) and the GI50 (Hs-578T) was > 10 µM (inactive). For the same molecule, the GI50 (NCI/ADR-RES) was 2.02 µM (inactive), the GI50 (OVCAR-3) was 0.152 µM (active) and the GI50 (U-251) was 2.72 µM (inactive).
With `CC(C)c1c(O)ccc2c1CCC1C(C)(C)CCCC21C` (configuration not stated) the GI50 (OVCAR-4) was 17.5 µM (inactive), the GI50 (HCT-116) was 17.2 µM (inactive) and the GI50 (K562) was 21.6 µM (inactive). The GI50 (ACHN) was 17.1 µM (inactive), the GI50 (SK-OV-3) was 18.9 µM (inactive) and the GI50 (LOX IMVI) was 17.1 µM (inactive). For the same molecule, the GI50 (SF-539) was 18.7 µM (inactive), the GI50 (SK-MEL-2) was 16.7 µM (inactive) and the GI50 (M14) was 16.2 µM (inactive). The GI50 (HT-29) was 16.9 µM (inactive), the GI50 (HL-60) was 29 µM (inactive) and the GI50 (SNB-75) was 18.6 µM (inactive). For the same molecule, the GI50 (HCC 2998) was 22 µM (inactive), the GI50 (OVCAR-5) was 14.6 µM (inactive) and the GI50 (UACC-257) was 17.7 µM (inactive). For the same molecule, the GI50 (Hs-578T) was 26.7 µM (inactive), the GI50 (NCI/ADR-RES) was 16.9 µM (inactive) and the GI50 (OVCAR-3) was 18.6 µM (inactive). The GI50 (U-251) was 18 µM (inactive).
For `c1ccc2c3c([nH]c2c1)C1c2[nH]c4ccccc4c2CCN1CC3`, the GI50 (OVCAR-4) was 4.49 µM (inactive), the GI50 (HCT-116) was 10.2 µM (inactive) and the GI50 (K562) was 5.78 µM (inactive). The GI50 (ACHN) was 13.8 µM (inactive), the GI50 (SK-OV-3) was 14.1 µM (inactive) and the GI50 (LOX IMVI) was 11.6 µM (inactive). For the same molecule, the GI50 (SF-539) was 17.5 µM (inactive), the GI50 (SK-MEL-2) was 26.8 µM (inactive) and the GI50 (HT-29) was 10.9 µM (inactive). For the same molecule, the GI50 (HL-60) was 16.8 µM (inactive), the GI50 (SNB-75) was 16.7 µM (inactive) and the GI50 (HCC 2998) was 7.64 µM (inactive). For the same molecule, the GI50 (OVCAR-5) was 19.5 µM (inactive), the GI50 (UACC-257) was 14.5 µM (inactive) and the GI50 (HOP-62) was 13.6 µM (inactive). For the same molecule, the GI50 (Hs-578T) was 17.3 µM (inactive), the GI50 (NCI/ADR-RES) was 2.27 µM (inactive) and the GI50 (OVCAR-3) was 12.4 µM (inactive).
